According to patent publication US20180194762A1 (Pharmacyclics LLC, priority 2017, published 2018):
Read-outs that look alike come from different tables or passages of the source.

Key:
Type in all cases: biochemical
Btk = target: T1, Btk (Homo sapiens, UniProt Q06187); experiment: Btk in vitro inhibitory activity (one of Method A TR-FRET, Method B electrophoretic mobility shift, Method C radiometric filter binding)
T1 construct: purified from insect cells as a full-length construct containing a N-terminal 6X-His tag; His6 (N); made in house; host or cells: insect cells (Method C)
T1 sequence (Q06187 whole entry): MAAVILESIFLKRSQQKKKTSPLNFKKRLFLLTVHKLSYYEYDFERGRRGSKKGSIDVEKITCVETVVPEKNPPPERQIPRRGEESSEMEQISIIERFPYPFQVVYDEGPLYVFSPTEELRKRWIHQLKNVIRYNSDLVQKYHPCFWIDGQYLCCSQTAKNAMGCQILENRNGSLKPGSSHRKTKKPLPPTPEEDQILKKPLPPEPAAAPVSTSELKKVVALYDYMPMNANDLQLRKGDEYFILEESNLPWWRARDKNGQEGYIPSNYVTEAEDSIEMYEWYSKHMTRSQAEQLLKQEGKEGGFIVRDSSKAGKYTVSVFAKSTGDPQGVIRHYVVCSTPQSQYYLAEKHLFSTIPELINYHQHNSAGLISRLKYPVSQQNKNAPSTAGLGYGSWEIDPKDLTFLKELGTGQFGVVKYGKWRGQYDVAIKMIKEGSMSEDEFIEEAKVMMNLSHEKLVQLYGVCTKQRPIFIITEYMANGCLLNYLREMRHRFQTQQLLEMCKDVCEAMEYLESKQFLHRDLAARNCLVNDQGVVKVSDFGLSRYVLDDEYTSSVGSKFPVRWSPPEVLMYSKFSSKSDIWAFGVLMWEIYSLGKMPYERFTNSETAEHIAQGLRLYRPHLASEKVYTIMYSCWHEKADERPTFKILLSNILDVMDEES
Procedure, shortened: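 Method A: TR-FRET with 0.5 nM Btk at [ATP]=Km, EDTA-quenched, 665/615 nm ratio; Ki(app) converted to IC50. Method B: 1 nM full-length His6 human BTK, 1 μM FAM peptide, pH 7.5, mobility-shift product/sum ratio, 12-point 4-parameter fit. Method C: radiometric filter binding, 8 nM His-tagged BTK, 0.2 mg/mL poly-Glu-Tyr.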

panel of kinases = target: T2, panel of kinases (Homo sapiens, UniProt P51813); experiment: Inhibition of a panel of kinases (in vitro HotSpot kinase assay, 33P-ATP, 1 μM ATP), other kinases; details: BMX wild-type, read-out: BMX-WT IC50
T2 sequence (P51813 1-675): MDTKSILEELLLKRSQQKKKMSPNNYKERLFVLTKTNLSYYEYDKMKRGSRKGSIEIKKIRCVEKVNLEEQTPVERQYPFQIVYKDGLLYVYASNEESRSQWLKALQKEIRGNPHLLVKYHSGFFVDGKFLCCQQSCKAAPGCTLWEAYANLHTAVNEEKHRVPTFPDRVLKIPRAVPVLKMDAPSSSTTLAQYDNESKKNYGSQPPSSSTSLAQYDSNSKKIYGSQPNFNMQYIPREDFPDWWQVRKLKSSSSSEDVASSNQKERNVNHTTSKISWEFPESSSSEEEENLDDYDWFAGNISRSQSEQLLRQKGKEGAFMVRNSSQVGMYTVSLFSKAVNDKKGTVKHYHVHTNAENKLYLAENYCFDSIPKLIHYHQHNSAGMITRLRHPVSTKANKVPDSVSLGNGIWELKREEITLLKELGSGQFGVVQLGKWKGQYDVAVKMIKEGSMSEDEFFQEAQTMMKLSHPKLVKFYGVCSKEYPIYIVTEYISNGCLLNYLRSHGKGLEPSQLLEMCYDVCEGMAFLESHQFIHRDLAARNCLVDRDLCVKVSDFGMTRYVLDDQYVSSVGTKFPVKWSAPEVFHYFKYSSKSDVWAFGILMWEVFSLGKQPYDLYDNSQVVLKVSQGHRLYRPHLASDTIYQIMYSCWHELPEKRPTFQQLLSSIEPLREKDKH
Procedure, shortened: (§1)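 Purified kinase enzymes were incubated with an appropriate substrate and 33P-labelled ATP at 1 μM ATP. Inhibition was measured radiometrically from incorporation of the 33P label.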

TEC = target: T3, TEC (Homo sapiens, UniProt P42680); experiment: Inhibition of a panel of kinases (in vitro HotSpot kinase assay, 33P-ATP, 1 μM ATP); details: for IC50: HotSpot kinase assay, 1 μM ATP; for TEC/Btk: ratio of TEC IC50 to Btk IC50 (selectivity)
T3 sequence (P42680 1-631): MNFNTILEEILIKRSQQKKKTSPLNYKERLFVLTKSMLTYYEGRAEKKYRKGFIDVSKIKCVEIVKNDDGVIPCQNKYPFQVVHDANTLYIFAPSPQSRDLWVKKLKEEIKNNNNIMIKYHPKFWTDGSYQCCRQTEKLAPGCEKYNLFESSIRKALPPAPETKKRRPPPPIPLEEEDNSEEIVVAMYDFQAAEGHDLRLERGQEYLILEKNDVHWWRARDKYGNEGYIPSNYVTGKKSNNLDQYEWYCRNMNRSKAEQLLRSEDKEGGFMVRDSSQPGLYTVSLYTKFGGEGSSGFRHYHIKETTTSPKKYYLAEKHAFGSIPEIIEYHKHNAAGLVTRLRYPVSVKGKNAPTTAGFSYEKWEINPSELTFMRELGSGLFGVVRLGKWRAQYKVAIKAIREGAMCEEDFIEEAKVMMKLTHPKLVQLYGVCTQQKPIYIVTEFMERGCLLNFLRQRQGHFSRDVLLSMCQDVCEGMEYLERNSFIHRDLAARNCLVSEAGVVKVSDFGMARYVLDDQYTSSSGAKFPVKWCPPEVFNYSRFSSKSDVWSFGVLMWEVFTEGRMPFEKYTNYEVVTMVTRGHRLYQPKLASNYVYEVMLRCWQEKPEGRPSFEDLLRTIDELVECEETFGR
Procedure, shortened: as §1

[1] = wild-type Btk, read-out: Btk-WT IC50
[2] = method is one of A, B or C, not stated which, read-out: IC50 values against Btk

| SMILES | IC50 (Btk; [1]) | IC50 (panel of kinases) | IC50 (TEC) | IC50 (Btk; [2]) | TEC/Btk (TEC) |
| --- | --- | --- | --- | --- | --- |
| CC(C)(C)c1nc(C(=O)NC(C)(C)c2ccc(-c3ccnc4[nH]nc(N[C@@H]5CCNC5)c34)cc2)no1 [Example 122, 5-tert-butyl-N-{2-[4-(3-{[(3R)-pyrrolidin-3-yl]amino}-1H-pyraozlo[3,4-b]pyridin-4-yl)phenyl]propan-2-yl}-1,2,4-oxadiazole-3-carboxamide] | > 10000 nM | > 10000 nM | > 10000 nM | – | – |
| CC(C)(C)c1nc(NC(=O)Cc2ccc(-c3ccnc4[nH]nc(N[C@@H]5CCNC5)c34)cc2F)no1 [Example 123, N-(5-tert-butyl-1,2,4-oxadiazol-3-yl)-2-[2-fluoro-4-(3-{[(3R)-pyrrolidin-3-yl]amino}-1H-pyrazolo[3,4-b]pyridin-4-yl)phenyl]acetamide] | > 10000 nM | > 10000 nM | > 10000 nM | – | – |
| CC(C)(C)c1nc(C(=O)NCc2ccc(-c3ccnc4[nH]nc(NC5CNC5)c34)cc2F)no1 [Example 124, N-[(4-{3-[(azetidin-3-yl)amino]-1H-pyrazolo[3,4-b]pyridin-4-yl}-2-fluorophenyl)methyl]-5-tert-butyl-1,2,4-oxadiazole-3-carboxamide] | 0.828 nM | 3350 nM | 843 nM | < 10 nM | 1018 |
| C[C@@H]1[C@H](Nc2n[nH]c3nccc(-c4ccc(CNC(=O)c5noc(C(C)(C)C)n5)c(F)c4)c23)CCCN1C(=O)N(C)C [Example 125, (2R,3R)-3-{[4-(4-{[(5-tert-butyl-1,2,4-oxadiaozl-3-yl) formamido]methyl}-3-fluorophenyl)-1H-pyrazolo[3,4-b]pyridin-3-yl]amino}-N,N,2-trimethylpiperidine-1-carboxamide] | 89.3 nM | > 10000 nM | > 10000 nM | – | >100 |
| C[C@@H]1[C@H](Nc2n[nH]c3nccc(-c4ccc(CNC(=O)c5noc(C(C)(C)C)n5)c(F)c4)c23)CCCN1C(=O)C1CC1 [Example 126, 5-tert-butyl-N-{[4-(3-{[(2R,3R)-1-cyclopropanecarbonyl-2-methylpiperidin-3-yl]amino}-1H-pyrazolo[3,4-b]pyridin-4-yl)-2-fluorophenyl]methyl}-1,2,4-oxadiazole-3-carboxamide] | 38.4 nM | 5450 nM | 4430 nM | – | 115 |
| C[C@H]1CC[C@@H](Nc2n[nH]c3nccc(-c4ccc(CNC(=O)c5noc(C(C)(C)C)n5)c(F)c4)c23)CN1C(=O)C1CC1 [Example 127, 5-tert-butyl-N-{[4-(3-{[(3R,6S)-1-cyclopropanecarbonyl-6-methylpiperidin-3-yl]amino}-1H-pyrazolo[3,4-b]pyridin-4-yl)-2-fluorophenyl]methyl}-1,2,4-oxadiazole-3-carboxamide] | 2.05 nM | 1550 nM | 698 nM | < 10 nM | 340 |
| C[C@H]1CC[C@@H](Nc2n[nH]c3nccc(-c4ccc(CNC(=O)c5noc(C(C)(C)C)n5)c(F)c4)c23)CN1S(=O)(=O)C1CC1 [Example 128, 5-tert-butyl-N-{[4-(3-{[(3R,6S)-1-(cylcopropanesulfonyl)-6-methylpiperidin-3-yl]amino}-1H-pyrazolo[3,4-b]pyridin-4-yl)-2-fluorophenyl]methyl}-1,2,4-oxadiazole-3-carboxamide] | 1.29 nM | 1120 nM | 500 nM | < 10 nM | 388 |
| CC(C)(C)c1nc(C(=O)NCc2ccc(-c3ccnc4[nH]nc(N[C@@H]5CCNC5)c34)c(F)c2)no1 [Example 129, 5-tert-butyl-N-{[3-fluoro-4-(3-{[(3R)-pyrrolidin-3-yl]amino}-1H-pyrazolo[3,4-b]pyridin-4-yl)phenyl]methyl}-1,2,4-oxadiazole-3-carboxamide] | 85.9 nM | > 10000 nM | > 10000 nM | – | >100 |
| CCC(=O)N1CC(Nc2n[nH]c3nccc(-c4ccc(CNC(=O)c5noc(C(C)(C)C)n5)c(F)c4)c23)C1 [Example 130, 5-tert-butyl-N-[(2-fluoro-4-{3-[(1-propanoylazetidin-3-yl)amino]-1H-pyrazolo[3,4-b]pyridin-4-yl}phenyl)methyl]-1,2,4-oxadiazole-3-carboxamide] | 1.28 nM | 3580 nM | 1330 nM | < 10 nM | 1039 |
| CC#CC(=O)N1CC(Nc2n[nH]c3nccc(-c4ccc(CNC(=O)c5noc(C(C)(C)C)n5)c(F)c4)c23)C1 [Example 131, N-{[4-(3-{[1-(but-2-ynoyl)azetidin-3-yl]amino}-1H-pyrazolo[3,4-b]pyridin-4-yl)-2-fluorophenyl]methyl}-5-tert-butyl-1,2,4-oxadiazole-3-carboxamide] | 0.201 nM | 152 nM | 106 nM | < 10 nM | 527 |
| CN(C)C(=O)N[C@@H]1CCN(c2n[nH]c3nccc(-c4ccc(CNC(=O)c5noc(C(C)(C)C)n5)c(F)c4)c23)C1 [Example 132, 5-tert-butyl-N-[(4-{3-[(3R)-3-[(dimethylcarbamoyl)amino]pyrrolidin-1-yl]-1H-pyrazolo[3,4-b]pyridin-4-yl}-2-fluorophenyl)methyl]-1,2,4-oxaidazole-3-carboxamide] | 0.889 nM | 1280 nM | 806 nM | < 10 nM | 907 |
| C=CC(=O)N1CCC[C@@H](Nc2n[nH]c3nccc(-c4ccc(C5(NC(=O)c6noc(C(C)(C)C)n6)CC5)c(F)c4)c23)C1 [Example 133, 5-tert-butyl-N-{1-[2-fluoro-4-(3-{[(3R)-1-(prop-2-enoyl)piperidin-3-yl]amino}-1H-pyrazolo[3,4-b]pyridin-4-yl)phenyl]cyclopropyl}-1,2,4-oxadiazole-3-carboxamide] | 0.785 nM | 111 nM | 259 nM | – | 330 |
| C=CC(=O)N1CC[C@@H](Nc2n[nH]c3nccc(-c4ccc(C(C)(C)NC(=O)c5noc(C(C)(C)C)n5)cc4)c23)C1 [Example 134, 5-tert-butyl-N-{2-[4-(3-{[(3R)-1-(prop-2-enoyl)pyrrolidin-3-yl]amino}-1H-pyrazolo[3,4-b]pyridin-4-yl)phenyl]propan-2-yl}-1,2,4-oxadiazole-3-carboxamide] | 1.38 nM | 224 nM | 348 nM | < 10 nM | 252 |
| C=CC(=O)N1CC[C@@H](Nc2n[nH]c3nccc(-c4ccc(CC(=O)Nc5noc(C(C)(C)C)n5)c(F)c4)c23)C1 [Example 135, N-(5-tert-butyl-1,2,4-oxadiazol-3-yl)-2-[2-fluoro-4-(3-{[(3R)-1-(prop-2-enoyl)pyrrolidin-3-yl]amino}-1H-pyrazolo[3,4-b]pyridin-4-yl)phenyl]acetamide] | 8.87 nM | 226 nM | 475 nM | < 10 nM | 54 |
| C[C@H]1CC[C@@H](Nc2n[nH]c3nccc(-c4ccc(CNC(=O)c5noc(C(C)(C)C)n5)c(F)c4)c23)CN1C(=O)NCC(F)(F)F [Example 138, (2S,5R)-5-{[4-(4-{[(5-tert-butyl-1,2,4-oxadiazol-3-yl)formamido]methyl}-3-fluorophenyl)-1H-pyrazolo[3,4-b]pyridin-3-yl]amino}-2-methyl-N-(2,2,2-trifluoroethyl)piperidine-1-carboxamide] | > 10000 nM | > 10000 nM | > 10000 nM | – | – |
